What was measured:
DIGSA [1] = assay: Pre-emergence action at 320 g/ha against DIGSA; type: in vivo, Digitaria sanguinalis; settings: visual scoring after about 3 weeks vs untreated controls
Summary of the method: (§1)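 Visual scoring in percent against untreated controls, about 3 weeks after treatment, where 100% means dead plants and 0% means no difference. Compounds were applied as aqueous suspension or emulsion (WP or EC, plus 0.5% additive) onto soil covering freshly sown seeds, at 600 l/ha water.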

POLCO [2] = assay: Post-emergence action at 320 g/ha against POLCO; type: in vivo, Fallopia convolvulus (Polygonum convolvulus); settings: visual rating about 3 weeks after treatment vs untreated controls
Text: (§2) Accordingly, the compounds of the invention have good herbicidal action against a broad spectrum of weed grasses and broad-leaved weeds and are therefore suitable for controlling unwanted vegetation by the post-emergence method. • b) Seeds of monocotyledonous and dicotyledonous weeds and crop plants are placed in sandy loam in plastic or organic planting pots, covered with soil and cultivated in a greenhouse under controlled growth conditions. 2 to 3 weeks after sowing, the test plants are treated at the one-leaf stage. The compounds of the invention, formulated in the form of wettable powders (WP) or as emulsion concentrates (EC), are then sprayed onto the green parts of the plants as aqueous suspension or emulsion with addition of 0.5% additive at a water application rate of 600 l/ha (converted). After the test plants have been kept in the greenhouse under optimum growth conditions for about 3 weeks, the activity of the preparations is rated visually in comparison to untreated controls. For example, 100% activity=the plants have died, 0% activity=like control plants. Tables 39 to 49 below show the effects of selected compounds of the general formula (I) according to Tables 1 and 2 on various harmful plants and at an application rate corresponding to 320 g/ha, which were obtained by the experimental procedure mentioned above.

AVEFA [3] = assay: Post-emergence action at 320 g/ha against AVEFA; type: in vivo; settings: visual rating about 3 weeks after treatment vs untreated controls
Text: as §2

LOLRI = assay: Pre-emergence action against LOLRI, 1280 g/ha; type: in vivo, Lolium rigidum; settings: visual scoring after about 3 weeks vs untreated controls, 100% = plants have died, 0% = like control plants
Summary of the method: (§3)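 Each pot was doubly sown in sandy loam and covered, then its soil surface was treated with compound suspension or emulsion containing 0.5% additive at 600 L/ha water. Plants grew in a greenhouse; effect was rated visually as percentages versus controls after about 3 weeks.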

AMARE [4] = assay: Post-emergence action against AMARE, 1.28 kg/ha; type: in vivo, Amaranthus retroflexus; settings: dosage 1280 g/ha, visual rating about 3 weeks after treatment vs untreated controls (100% = plants died)
Summary of the method: (§4)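 Visual rating against untreated plants about 3 weeks after spraying gives % activity, where 0% means like controls and 100% means plants died. Plants were treated post-emergence at the one-leaf stage with compound formulated as wettable powder or emulsion concentrate, applied at 600 L water/ha plus 0.5% additive.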

MATIN [5] = assay: Pre-emergence action against MATIN, 1280 g/ha; type: in vivo, Tripleurospermum inodorum (Matricaria inodora); settings: scored visually after about 3 weeks vs untreated controls (100% = plants have died)
Summary of the method: as §3

POAAN [6] = assay: Pre-emergence action against POAAN, 1280 g/ha; type: in vivo, Poa annua; settings: visual scoring after about 3 weeks vs untreated controls, 100% = plants have died, 0% = like control plants
Summary of the method: as §3

STEME [7] = assay: Pre-emergence action against STEME, 1280 g/ha; type: in vivo, Stellaria media; settings: scored visually after about 3 weeks vs untreated controls (100% = plants have died)
Summary of the method: as §3

ALOMY [8] = assay: Post-emergence action against ALOMY, 320 g/ha; type: in vivo, Alopecurus myosuroides; settings: dosage 320 g/ha, visual rating about 3 weeks after treatment vs untreated controls (100% = plants died)
Summary of the method: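 Activity is a visual rating against untreated controls, with 0% like control and 100% dead plants, made about 3 weeks after treatment. Plants grown in sandy loam in the greenhouse received a post-emergence spray at the one-leaf stage of 320 g/ha, formulated as WP or EC with 0.5% additive in 600 l/ha water.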

MATIN [9] = assay: Post-emergence action against MATIN, 1.28 kg/ha; type: in vivo, Tripleurospermum inodorum (Matricaria inodora); settings: dosage 1280 g/ha, visual rating about 3 weeks after treatment vs untreated controls (100% = plants died)
Summary of the method: as §4

AVEFA [10] = assay: Pre-emergence action at 320 g/ha against AVEFA; type: in vivo; settings: visual scoring after about 3 weeks vs untreated controls
Summary of the method: as §1

VERPE [11] = assay: Pre-emergence action at 320 g/ha against VERPE; type: in vivo, Veronica persica; settings: visual scoring after about 3 weeks vs untreated controls
Summary of the method: as §1

AMARE [12] = assay: Pre-emergence action against AMARE, 1280 g/ha; type: in vivo, Amaranthus retroflexus; settings: scored visually after about 3 weeks vs untreated controls (100% = plants have died)
Summary of the method: as §3

SETVI [13] = assay: Post-emergence action against SETVI, 1.28 kg/ha; type: in vivo, Setaria viridis; settings: dosage 1280 g/ha, visual rating about 3 weeks after treatment vs untreated controls
Summary of the method: as §4

VERPE [14] = assay: Pre-emergence action against VERPE, 1280 g/ha; type: in vivo, Veronica persica; settings: scored visually after about 3 weeks vs untreated controls (100% = plants have died)
Summary of the method: as §3

STEME [15] = assay: Post-emergence action against STEME, 1.28 kg/ha; type: in vivo, Stellaria media; settings: dosage 1280 g/ha, visual rating about 3 weeks after treatment vs untreated controls (100% = plants died)
Summary of the method: as §4

POLCO [16] = assay: Pre-emergence action at 320 g/ha against POLCO; type: in vivo, Fallopia convolvulus (Polygonum convolvulus); settings: visual scoring after about 3 weeks vs untreated controls
Summary of the method: as §1

DIGSA [17] = assay: Post-emergence action against DIGSA, 1.28 kg/ha; type: in vivo, Digitaria sanguinalis; settings: dosage 1280 g/ha, visual rating about 3 weeks after treatment vs untreated controls
Summary of the method: as §4

DIGSA [18] = assay: Post-emergence action at 320 g/ha against DIGSA; type: in vivo, Digitaria sanguinalis; settings: dosage 320 g/ha, visual rating about 3 weeks after treatment vs untreated controls (100% = plants died)
Text: as §2

ECHCG [19] = assay: Post-emergence action against ECHCG, 1.28 kg/ha; type: in vivo, Echinochloa crus-galli; settings: dosage 1280 g/ha, visual rating about 3 weeks after treatment vs untreated controls
Summary of the method: as §4

ALOMY [20] = assay: Pre-emergence action against ALOMY, 1280 g/ha; type: in vivo, Alopecurus myosuroides; settings: visual scoring after about 3 weeks vs untreated controls, 100% = plants have died, 0% = like control plants
Summary of the method: as §3

VERPE [21] = assay: Post-emergence action against VERPE, 1.28 kg/ha; type: in vivo, Veronica persica; settings: dosage 1280 g/ha, visual rating about 3 weeks after treatment vs untreated controls (100% = plants died)
Summary of the method: as §4

SETVI [22] = assay: Post-emergence action at 320 g/ha against SETVI; type: in vivo, Setaria viridis; settings: visual rating about 3 weeks after treatment vs untreated controls
Text: as §2

POAAN [23] = assay: Post-emergence action against POAAN, 1.28 kg/ha; type: in vivo, Poa annua; settings: dosage 1280 g/ha, visual rating about 3 weeks after treatment vs untreated controls
Summary of the method: as §4

ABUTH [24] = assay: Post-emergence action at 320 g/ha against ABUTH; type: in vivo, Abutilon theophrasti; settings: visual rating about 3 weeks after treatment vs untreated controls
Text: as §2

AMARE [25] = assay: Pre-emergence action at 320 g/ha against AMARE; type: in vivo, Amaranthus retroflexus; settings: visual scoring after about 3 weeks vs untreated controls
Summary of the method: as §1

ECHCG [26] = assay: Pre-emergence action against ECHCG, 1280 g/ha; type: in vivo, Echinochloa crus-galli; settings: visual scoring after about 3 weeks vs untreated controls, 100% = plants have died, 0% = like control plants
Summary of the method: as §3

SETVI [27] = assay: Pre-emergence action against SETVI, 1280 g/ha; type: in vivo, Setaria viridis; settings: visual scoring after about 3 weeks vs untreated controls, 100% = plants have died, 0% = like control plants
Summary of the method: as §3

MATIN [28] = assay: Pre-emergence action at 320 g/ha against MATIN; type: in vivo, Tripleurospermum inodorum (Matricaria inodora); settings: visual scoring after about 3 weeks vs untreated controls
Summary of the method: as §1

ABUTH [29] = assay: Pre-emergence action against ABUTH, 1280 g/ha; type: in vivo, Abutilon theophrasti; settings: scored visually after about 3 weeks vs untreated controls (100% = plants have died)
Summary of the method: as §3

DIGSA [30] = assay: Pre-emergence action against DIGSA, 1280 g/ha; type: in vivo, Digitaria sanguinalis; settings: visual scoring after about 3 weeks vs untreated controls, 100% = plants have died, 0% = like control plants
Summary of the method: as §3

VIOTR = assay: Pre-emergence action at 320 g/ha against VIOTR; type: in vivo, Viola tricolor; settings: dosage 320 g/ha
Summary of the method: as §1

CCOC(=O)COc1nn(-c2ccccc2F)c(-c2cncnc2)c1Br [VI-001]
Pre-emergence action against DIGSA in % (DIGSA [1]): 100% | Post-emergence action against POLCO in % (POLCO [2]): 90% | Post-emergence action against AVEFA in % (AVEFA [3]): 80% | Pre-emergence action against LOLRI (LOLRI): 100% | Post-emergence action against AMARE (AMARE [4]): 90% | Pre-emergence action against MATIN (MATIN [5]): 100% | Pre-emergence action against POAAN (POAAN [6]): 100% | Pre-emergence action against STEME (STEME [7]): 100% | Post-emergence action against ALOMY (ALOMY [8]): 90% | Post-emergence action against MATIN (MATIN [9]): 90% | Pre-emergence action against AVEFA in % (AVEFA [10]): 90% | Pre-emergence action against VERPE in % (VERPE [11]): 100% | Pre-emergence action against AMARE (AMARE [12]): 100% | Post-emergence action against SETVI (SETVI [13]): 100% | Pre-emergence action against VERPE (VERPE [14]): 100% | Post-emergence action against STEME (STEME [15]): 100% | Pre-emergence action against POLCO in % (POLCO [16]): 100% | Post-emergence action against DIGSA (DIGSA [17]): 100% | Post-emergence action at 320 g/ha against DIGSA in % (DIGSA [18]): 90% | Post-emergence action against ECHCG (ECHCG [19]): 100% | Pre-emergence action against ALOMY (ALOMY [20]): 90% | Post-emergence action against VERPE (VERPE [21]): 100% | Post-emergence action against SETVI in % (SETVI [22]): 80% | Post-emergence action against POAAN (POAAN [23]): 100% | Post-emergence action against ABUTH in % (ABUTH [24]): 80% | Pre-emergence action against AMARE in % (AMARE [25]): 100% | Pre-emergence action against ECHCG (ECHCG [26]): 100% | Pre-emergence action against SETVI (SETVI [27]): 100% | Pre-emergence action against MATIN in % (MATIN [28]): 90% | Pre-emergence action against ABUTH (ABUTH [29]): 90% | Pre-emergence action against DIGSA (DIGSA [30]): 90% | Pre-emergence action against VIOTR in % (VIOTR): 100%

Reference: US12180187B2, “1-phenyl-5-azinylpyrazolyl-3-oxyalkyl acids and their use for controlling unwanted plant growth” (BAYER AKTIENGESELLSCHAFT, priority 2019, dated 2024)
